According to EPA's ToxValDB 9.5 (doi:10.2903/j.efsa.2009.336r):

Key:
Lepomis macrochirus = conditions: acute; duration: 96 hours; mortality
Colinus virginianus = conditions: acute, oral, mortality
Avena sativa = conditions: not reported; no effects
Apis mellifera = conditions: acute; duration: 48 hours; oral; unspecified; mortality
Canidae = conditions: chronic; duration: 52 weeks; oral; Dog Other; organ weight
Daphnia magna = conditions: chronic/long-term; duration: 21 days; reproduction
Bibionidae = conditions: chronic/long-term; duration: 28 days; other
Tagia sp. = conditions: acute; duration: 14 days; mortality
Oncorhynchus mykiss = conditions: chronic/long-term; duration: 95 days

`CC(COc1ccc(Oc2ccccc2)cc1)Oc1ccccn1` (centres undefined) [Pyriproxyfen] gave an LD50 (Anas platyrhynchos; acute, oral, unspecified, mortality) of over 1910 mg/kg, an NOEC (Anas platyrhynchos; reproductive) of 70.2 mg/kg-day and an LC50 (Lepomis macrochirus) of over 0.27 µg/mL. The LC50 (Colinus virginianus; diet) was over 863 mg/kg-day, the LD50 (Colinus virginianus) was over 1910 mg/kg and the LEL (Avena sativa) was 8000 g/ha. It also gave an LD50 (Apis mellifera) of over 74 µg/piece, an NOAEL (Canidae) of 10 mg/kg-day and an NOEC (Daphnia magna) of 1.5e-05 mg/L. For the same molecule, the NOEC (Bibionidae) was 0.01 mg/L, the LC50 (Tagia sp.) was over 1000 mg/kg and the NOEC (Oncorhynchus mykiss) was 0.0043 mg/L. It also gave an LD50 (Rattus norvegicus; acute, oral, mortality) of over 5000 mg/kg and an NOAEL (Rattus norvegicus; reproduction developmental, organ weight) of 13.3 mg/kg-day.
